Test results taken from the NIST ThermoML archive (doi:10.1021/acs.jced.6b00750).

Experiment: xn = mol fraction of the nth substance listed
Conditions: Liquid; for mass density: Vibrating wire densiometer; for viscosity: Vibrating wire viscometry

CCCCCCCCCCCCCCCC [hexadecane] + O=C=O
Conditions | mass density [kg/m3] | viscosity [mPa·s]
298.14 K, 21810 kPa, x2 = 0.727 | 822.6 | 0.786
298.14 K, 22010 kPa, x2 = 0.727 | 822.8 | 0.787
298.14 K, 31030 kPa, x2 = 0.727 | 831.7 | 0.861
298.14 K, 41130 kPa, x2 = 0.727 | 840.7 | 0.943
298.16 K, 10920 kPa, x2 = 0.069 | 776.3 | 3.057
298.16 K, 11130 kPa, x2 = 0.069 | 776.5 | 3.075
298.16 K, 21440 kPa, x2 = 0.069 | 782.8 | 3.474
298.16 K, 30250 kPa, x2 = 0.069 | 787.6 | 3.87
298.18 K, 10440 kPa, x2 = 0.5877 | 802.3 | 1.003
298.18 K, 10670 kPa, x2 = 0.5877 | 802.7 | 0.998
298.18 K, 20560 kPa, x2 = 0.5877 | 811.8 | 1.107
298.18 K, 30070 kPa, x2 = 0.5877 | 819.7 | 1.219
298.18 K, 40380 kPa, x2 = 0.5877 | 827.4 | 1.344
323.12 K, 21230 kPa, x2 = 0.727 | 796.3 | 0.565
323.12 K, 21410 kPa, x2 = 0.727 | 796.3 | 0.565
323.12 K, 40330 kPa, x2 = 0.727 | 817.3 | 0.679
323.12 K, 60540 kPa, x2 = 0.727 | 835.2 | 0.806
323.12 K, 80280 kPa, x2 = 0.727 | 850.1 | 0.93
323.12 K, 100230 kPa, x2 = 0.727 | 863.2 | 1.064
323.12 K, 119920 kPa, x2 = 0.727 | 874.7 | 1.204
323.15 K, 10410 kPa, x2 = 0.069 | 759.1 | 1.83
323.15 K, 10420 kPa, x2 = 0.069 | 759.2 | 1.827
323.15 K, 10630 kPa, x2 = 0.5877 | 779 | 0.704
323.15 K, 10860 kPa, x2 = 0.5877 | 779.5 | 0.703
323.15 K, 20230 kPa, x2 = 0.069 | 765.7 | 2.061
323.15 K, 20850 kPa, x2 = 0.5877 | 790.2 | 0.786
323.15 K, 40110 kPa, x2 = 0.5877 | 807.6 | 0.947
323.15 K, 40860 kPa, x2 = 0.069 | 778.3 | 2.56
323.15 K, 60100 kPa, x2 = 0.5877 | 822.7 | 1.122
323.15 K, 60910 kPa, x2 = 0.069 | 788.7 | 3.13
323.15 K, 80840 kPa, x2 = 0.069 | 798.2 | 3.755
323.15 K, 99870 kPa, x2 = 0.069 | 806 | 4.474
373.08 K, 10380 kPa, x2 = 0.069 | 726.3 | 0.927
373.08 K, 12120 kPa, x2 = 0.069 | 728 | 0.947
373.08 K, 21470 kPa, x2 = 0.069 | 735.9 | 1.048
373.08 K, 26470 kPa, x2 = 0.727 | 752.5 | 0.365
373.08 K, 26600 kPa, x2 = 0.727 | 752.7 | 0.365
373.08 K, 40330 kPa, x2 = 0.069 | 749.9 | 1.263
373.08 K, 40830 kPa, x2 = 0.727 | 773 | 0.424
373.08 K, 60000 kPa, x2 = 0.727 | 794.6 | 0.503
373.08 K, 60300 kPa, x2 = 0.069 | 762.5 | 1.514
373.08 K, 80110 kPa, x2 = 0.727 | 813.1 | 0.581
373.08 K, 80560 kPa, x2 = 0.069 | 773.5 | 1.794
373.08 K, 99990 kPa, x2 = 0.727 | 828.7 | 0.659
373.08 K, 100830 kPa, x2 = 0.069 | 783.5 | 2.087
373.08 K, 117640 kPa, x2 = 0.727 | 840.7 | 0.735
373.11 K, 20760 kPa, x2 = 0.5877 | 745.5 | 0.463
373.11 K, 20790 kPa, x2 = 0.5877 | 745.5 | 0.463
373.11 K, 40220 kPa, x2 = 0.5877 | 768.7 | 0.564
373.11 K, 60460 kPa, x2 = 0.5877 | 787.7 | 0.67
373.11 K, 80240 kPa, x2 = 0.5877 | 803.1 | 0.775
423.11 K, 11500 kPa, x2 = 0.069 | 694.2 | 0.574
423.11 K, 11890 kPa, x2 = 0.069 | 694.7 | 0.576
423.11 K, 21700 kPa, x2 = 0.069 | 705.2 | 0.645
423.11 K, 25910 kPa, x2 = 0.5877 | 708.9 | 0.328
423.11 K, 25970 kPa, x2 = 0.5877 | 709.4 | 0.33
423.11 K, 40190 kPa, x2 = 0.5877 | 730.3 | 0.384
423.11 K, 40710 kPa, x2 = 0.069 | 722.5 | 0.778
423.11 K, 42080 kPa, x2 = 0.727 | 730.1 | 0.296
423.11 K, 42200 kPa, x2 = 0.727 | 730.3 | 0.296
423.11 K, 60240 kPa, x2 = 0.5877 | 753.3 | 0.462
423.11 K, 60280 kPa, x2 = 0.727 | 755.6 | 0.353
423.11 K, 60590 kPa, x2 = 0.069 | 737.2 | 0.929
423.11 K, 80390 kPa, x2 = 0.727 | 777.7 | 0.412
423.11 K, 80460 kPa, x2 = 0.5877 | 772 | 0.537
423.11 K, 80740 kPa, x2 = 0.069 | 750 | 1.083
423.11 K, 100360 kPa, x2 = 0.727 | 795.9 | 0.471
423.11 K, 100800 kPa, x2 = 0.5877 | 787.9 | 0.614
423.11 K, 101550 kPa, x2 = 0.069 | 761.6 | 1.253
423.11 K, 118170 kPa, x2 = 0.5877 | 799.8 | 0.683
423.11 K, 120210 kPa, x2 = 0.727 | 811.4 | 0.529
473.15 K, 43620 kPa, x2 = 0.5877 | 697.7 | 0.293
473.15 K, 43720 kPa, x2 = 0.5877 | 697.7 | 0.292
473.15 K, 60700 kPa, x2 = 0.5877 | 720.7 | 0.343
473.15 K, 80450 kPa, x2 = 0.5877 | 742 | 0.402
473.15 K, 100840 kPa, x2 = 0.5877 | 760.2 | 0.46
473.15 K, 120610 kPa, x2 = 0.5877 | 775.2 | 0.52
473.26 K, 61090 kPa, x2 = 0.727 | 718.9 | 0.267
473.26 K, 61330 kPa, x2 = 0.727 | 719.1 | 0.268
473.26 K, 80480 kPa, x2 = 0.727 | 744 | 0.313
473.26 K, 100590 kPa, x2 = 0.727 | 765.1 | 0.36
473.26 K, 120860 kPa, x2 = 0.727 | 783 | 0.407
